Like-named read-outs stand apart in the source and are kept apart here.
Columns and labels:
Type in all cases: biochemical
CDK6/cyclin D3 = CDK6/cyclin D3 (Homo sapiens, UniProt Q00534); assay: Human CDK6/cyclin D3 inhibitory activity (off-chip mobility shift assay); conditions: 50% inhibitory concentration against CDK6/cyclin D3; 300 μM ATP, room temperature, five hours; read-out: CDK6 Activity Symbol
Method: Human CDK6/Cyclin D3 Inhibitory Activity
CDK6/cyclin D3 inhibitory activity was determined by the off-chip mobility shift assay (MSA). The MSA separates proteins from one another on the basis of a difference in electrophoretic mobility depending on the molecular weight or electric charge of the proteins. The kinase activity is determined by quantifying the degree of phosphorylation through electrophoretic analysis of a positive to negative change in electric charge of the substrate phosphorylated by the kinase.
Each solution was prepared with an assay buffer containing 20 mM HEPES (pH 7.5), 0.01% Triton X-100, and 2 mM dithiothreitol. A test compound solution was prepared by dilution of the test compound with dimethyl sulfoxide (DMSO) to a concentration 100 times higher than the final concentration and then 25-fold dilution with the assay buffer to a concentration four times higher than the final concentration. An ATP/substrate/metal solution was prepared to have a concentration four times higher than the final concentration. An enzyme solution was prepared to have a concentration twice higher than the final concentration. The final enzyme concentration was adjusted to an appropriate level on the basis of the enzyme activity signal and the inhibitory activity of a positive control compound.
The test compound solution (5 μL/well) and the ATP/substrate/metal solution (5 μL/well) were added to a 384-well plate, and the enzyme solution or the assay buffer (10 μL/well) was added to the plate (total amount of the reaction mixture: 20 μL/well) for initiation of enzymatic reaction. […] The reaction was performed at room temperature for five hours, and a termination buffer (QuickScout Screening Assist MSA, manufactured by Carna Biosciences, Inc.) (60 μL/well) was then added to the plate for termination of the reaction. Subsequently, the substrate peptide and the phosphorylated peptide in the reaction mixture were separated from each other and quantified with LabChip 3000 (manufactured by Caliper Lifesciences). The kinase reaction was evaluated by the product ratio (P/(P+S)) calculated from the peak height (S) of the substrate peptide and the peak height (P) of the phosphorylated peptide.
The percent inhibition of enzyme activity was calculated for each test compound (note: enzyme activity=100% in the case of addition of the enzyme solution and addition of DMSO instead of the test compound solution, whereas enzyme activity=0% in the case of addition of the assay buffer instead of the enzyme solution and addition of DMSO instead of the test compound solution). The percent inhibition of enzyme activity was fitted to a dose-response curve, to determine a 50% inhibitory concentration against CDK6/cyclin D3.
In each table, “+++” corresponds to IC50<10 nM, “++” 10 nM≤IC50<100 nM, and “+” 100 nM≤IC50.

CDK2/cyclin A2 = molecular target: T1, CDK2/cyclin A2 (Homo sapiens, UniProt P24941); assay: Human CDK2/cyclin A2 inhibitory activity (QS S Assist CDK2/Cyclin A2_FP Kit, IMAP fluorescence polarization)
T1 construct: purchased Carna Biosciences, Inc. QS S Assist CDK2/Cyclin A2_FP Kit
In short: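 Kinase activity read as fluorescence polarization (485/535 nm) after phosphorylated fluorescent substrate binds IMAP reagent (30 min, RT, dark). Enzyme (2.5 ng/well) reacted 60 min at RT with ATP/substrate/metal in HEPES pH 7.4 buffer with Tween 20 and DTT; no-enzyme wells define 0% activity; IC50 by curve fit.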

CDK4/cyclin D3 = molecular target: T2, CDK4/cyclin D3 (Homo sapiens, UniProt P11802); assay: Human CDK4/cyclin D3 inhibitory activity (QS S Assist CDK4/Cyclin D3_FP Kit, IMAP fluorescence polarization)
T2 construct: purchased Carna Biosciences, Inc. QS S Assist CDK4/Cyclin D3_FP Kit
T2 sequence (P11802 whole entry): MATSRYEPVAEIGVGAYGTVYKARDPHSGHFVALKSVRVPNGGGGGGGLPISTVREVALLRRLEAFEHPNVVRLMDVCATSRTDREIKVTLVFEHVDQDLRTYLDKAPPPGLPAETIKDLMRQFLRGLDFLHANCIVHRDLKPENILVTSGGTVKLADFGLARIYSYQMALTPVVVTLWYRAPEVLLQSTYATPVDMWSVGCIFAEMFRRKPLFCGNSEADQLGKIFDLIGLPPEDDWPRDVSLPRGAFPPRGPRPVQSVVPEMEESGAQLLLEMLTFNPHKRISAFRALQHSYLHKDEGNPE
T2 sequence (P30281 whole entry partner): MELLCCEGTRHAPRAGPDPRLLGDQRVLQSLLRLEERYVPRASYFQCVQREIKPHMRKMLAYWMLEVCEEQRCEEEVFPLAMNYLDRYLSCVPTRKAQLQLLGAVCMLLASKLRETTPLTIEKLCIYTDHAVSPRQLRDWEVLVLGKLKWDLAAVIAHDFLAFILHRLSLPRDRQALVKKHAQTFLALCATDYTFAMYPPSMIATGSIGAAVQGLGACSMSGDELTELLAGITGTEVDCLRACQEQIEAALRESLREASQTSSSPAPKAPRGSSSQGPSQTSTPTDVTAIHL
In short: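 IMAP fluorescence polarization kit: CDK4/cyclin D3 at 12.5-25 ng/well with kit ATP/substrate/metal mix in 20 mM HEPES pH 7.4, 0.01% Tween20, 2 mM DTT, 45 min at room temperature. FP read at 485/535 nm after 30 min binding; IC50 from dose-response fit of percent inhibition versus enzyme and no-enzyme controls.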

[1] = Human CDK2/cyclin A2 inhibitory activity, read-out: CDK2 Activity symbol
[2] = Human CDK4/cyclin D3 inhibitory activity, read-out: CDK4 Activity symbol
[3] = 50% inhibitory concentration against CDK2/cyclin A2, given as class symbol
[4] = 50% inhibitory concentration against CDK4/cyclin D3, given as class symbol

Chain of CDK6/cyclin D3 (Q00534 whole entry): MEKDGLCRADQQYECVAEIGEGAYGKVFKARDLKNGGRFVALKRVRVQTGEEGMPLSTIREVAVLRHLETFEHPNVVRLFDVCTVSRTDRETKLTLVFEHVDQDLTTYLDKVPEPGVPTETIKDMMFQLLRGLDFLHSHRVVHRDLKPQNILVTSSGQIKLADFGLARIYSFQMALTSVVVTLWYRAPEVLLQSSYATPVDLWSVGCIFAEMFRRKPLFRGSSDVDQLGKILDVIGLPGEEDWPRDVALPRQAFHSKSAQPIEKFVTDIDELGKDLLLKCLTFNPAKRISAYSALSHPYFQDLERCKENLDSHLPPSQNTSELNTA
Chain of CDK6/cyclin D3 (P30281 whole entry partner): as the sequence (P30281 whole entry partner) above

| IC50 (CDK6/cyclin D3) | IC50 (CDK2/cyclin A2; [1]) | IC50 (CDK4/cyclin D3; [2]) | IC50 (CDK2/cyclin A2; [3]) | IC50 (CDK4/cyclin D3; [4]) | SMILES |
| --- | --- | --- | --- | --- | --- |
| 10 to 100 nM | ≥ 100 nM | < 10 nM |  |  | CO[C@H](C)c1cc2cnc(Nc3cnc(N4CCNCC4)cn3)nc2c(NC(C)C)n1 [Compound 363] |
| < 10 nM | ≥ 100 nM | < 10 nM |  |  | CC(C)Nc1nc([C@@H](C)O)cc2cnc(Nc3ccc(N4CCNCC4=O)cn3)nc12 [Compound 230] |
| 10 to 100 nM |  |  | ≥ 100 nM | < 10 nM | CCCNc1nc([C@@H](C)OC)cc2cnc(Nc3ccc(N4CCNCC4)nn3)nc12 [Compound 819] |
| < 10 nM |  |  | ≥ 100 nM | < 10 nM | CC(C)Nc1nc([C@@H](C)O)cc2cnc(Nc3ccc4c(n3)CCN(CCN(C)C)C4)nc12 [Compound 954] |
| < 10 nM |  |  | ≥ 100 nM | < 10 nM | CCCNc1nc([C@@H](C)O)cc2cnc(Nc3ccc(CN4CCN(CCO)CC4)cn3)nc12 [Compound 844] |
| < 10 nM |  |  | ≥ 100 nM | < 10 nM | CC(C)Nc1nc([C@@H](C)O)cc2cnc(Nc3ccc4c(n3)CCN(CCO)C4)nc12 [Compound 929] |
| < 10 nM | ≥ 100 nM | < 10 nM |  |  | CC(C)Nc1nc([C@@H](C)O)cc2cnc(Nc3ccc(N4CCNCC4)cn3)nc12 [Compound 16] |
| 10 to 100 nM |  |  | ≥ 100 nM | < 10 nM | C[C@@H](O)c1cc2cnc(Nc3ccc4c(n3)CCNC4)nc2c(N[C@H]2CCCOC2)n1 [Compound 778] |
| < 10 nM |  |  | ≥ 100 nM | < 10 nM | CC(C)Nc1nc(C2(C)COC2)cc2cnc(Nc3ccc(CN4CCNCC4)cn3)nc12 [Compound 883] |
| 10 to 100 nM |  |  | ≥ 100 nM | < 10 nM | Cc1nc(Nc2ncc3cc([C@@H](C)O)nc(NC(C)C)c3n2)ccc1N1CCNCC1=O [Compound 749] |
| 10 to 100 nM | ≥ 100 nM | < 10 nM |  |  | CO[C@H](C)c1cc2cnc(Nc3ccc(CN4CCNCC4)cn3)nc2c(NC(C)C)n1 [Compound 220] |
| 10 to 100 nM | ≥ 100 nM | < 10 nM |  |  | CO[C@H](C)c1cc2cnc(Nc3ccc(N4CCNCC4)nn3)nc2c(N[C@H]2CCCOC2)n1 [Compound 304] |
| 10 to 100 nM |  |  | ≥ 100 nM | < 10 nM | c1cc(N2CCNCC2)nnc1Nc1ncc2cc(C3CCOC3)nc(N[C@H]3CCCOC3)c2n1 (single isomer, unassigned) [Compound 938] |
| < 10 nM |  |  | ≥ 100 nM | < 10 nM | CC(C)Nc1nc(C2(C)COC2)cc2cnc(Nc3ccc(N4CCNCC4=O)cn3)nc12 [Compound 779] |
| 10 to 100 nM | ≥ 100 nM | < 10 nM |  |  | CO[C@H](C)c1cc2cnc(Nc3ccc(CN4CCNCC4)cn3)nc2c(N[C@H]2CCCOC2)n1 [Compound 300] |
| < 10 nM |  |  | ≥ 100 nM | < 10 nM | CC(C)Nc1nc(C2(C)COC2)cc2cnc(Nc3ccc(N4CCNCC4)nn3)nc12 [Compound 879] |
| 10 to 100 nM |  |  | ≥ 100 nM | < 10 nM | CCC(O)c1cc2cnc(Nc3ccc(N4CCNCC4=O)cn3)nc2c(NC(C)C)n1 (stereo not shown) [Compound 1036] |
| 10 to 100 nM |  |  | ≥ 100 nM | < 10 nM | CCNc1nc([C@@H](C)O)cc2cnc(Nc3ccc(CN4CCN(CCO)CC4)cn3)nc12 [Compound 843] |
| 10 to 100 nM |  |  | ≥ 100 nM | < 10 nM | CC(C)Nc1nc(C2CCCO2)cc2cnc(Nc3ccc(N4CCNCC4=O)cn3)nc12 (single isomer, unassigned) [Compound 672] |

| IC50 (CDK6/cyclin D3) | IC50 (CDK2/cyclin A2; [1]) | IC50 (CDK4/cyclin D3; [2]) | IC50 (CDK2/cyclin A2; [3]) | IC50 (CDK4/cyclin D3; [4]) | SMILES |
| --- | --- | --- | --- | --- | --- |
| < 10 nM |  |  |  |  | CC(C)Nc1nc(C(F)F)cc2cnc(Nc3ccc(N4CCNCC4)cn3)nc12 [Compound 3, 6-difluoromethyl-8-isopropyl-2-(5-piperazin-1-ylpyridin-2-yl)pyrido[3,4-d]pyrimidine-2,8-diamine] |
| 10 to 100 nM | ≥ 100 nM | < 10 nM |  |  | CO[C@H](C)c1cc2cnc(Nc3ccc(N4CCNCC4)nn3)nc2c(NC(C)C)n1 [Compound 217, (R)—N8-isopropyl-6-(1-methoxyethyl)-N2-(6-(piperazin-1-yl)pyridazin-3-yl)pyrido[3,4-d]pyrimidine-2,8-diamine] |
| < 10 nM |  |  | ≥ 100 nM | < 10 nM | CC(C)N(C)c1nc([C@@H](C)O)cc2cnc(Nc3ccc(N4CCNCCC4=O)cn3)nc12 [Compound 904] |
| < 10 nM |  |  | ≥ 100 nM | < 10 nM | c1cc(Nc2ncc3cc(C4CCOC4)nc(N[C@H]4CCCOC4)c3n2)ncc1CN1CCNCC1 (single isomer, unassigned) [Compound 941] |
| 10 to 100 nM |  |  | ≥ 100 nM | < 10 nM | CCCNc1nc([C@@H](C)OC)cc2cnc(Nc3ccc(CN4CCNCC4)cn3)nc12 [Compound 818] |
| 10 to 100 nM | ≥ 100 nM | < 10 nM |  |  | COCC(C)(C)Nc1nc([C@@H](C)O)cc2cnc(Nc3ccc(CN4CCNCC4)cn3)nc12 [Compound 221] |
|  |  |  | ≥ 100 nM | 10 to 100 nM | CO[C@H](C)c1cc2cnc(Nc3ccc(CN4CCN(CC#N)CC4)cn3)nc2c(NC(C)C)n1 [Compound 969] |
|  | ≥ 100 nM | < 10 nM |  |  | FC(F)c1cc2cnc(Nc3ccc(CN4CCNCC4)cn3)nc2c(N[C@H]2CCCOC2)n1 [Compound 380] |
|  |  |  | ≥ 100 nM | < 10 nM | CO[C@H](C)c1cc2cnc(Nc3ccc(OC4CCNCC4)cn3)nc2c(N[C@H]2CCCOC2)n1 [Compound 874] |
|  |  |  | ≥ 100 nM | < 10 nM | c1cc(N2CCNCC2)nnc1Nc1ncc2cc(C3CCOC3)nc(N[C@H]3CCCOC3)c2n1 (single isomer, unassigned) [Compound 939] |
|  | 10 to 100 nM | < 10 nM |  |  | CC(C)Nc1nc(C(F)F)cc2cnc(Nc3ccc(CN4CCNC5(CC5)C4)cn3)nc12 [Compound 175] |
|  |  |  | ≥ 100 nM | 10 to 100 nM | O=C1CNCCN1c1ccc(Nc2ncc3cc(C(F)F)nc(NCC4CCOCC4)c3n2)nc1 [Compound 823] |
|  | 10 to 100 nM | < 10 nM |  |  | C[C@@H](O)c1cc2cnc(Nc3ccc(N4CCNCC4=O)cn3)nc2c(N[C@H]2CC[C@H](C)CC2)n1 [Compound 612] |
|  |  |  | ≥ 100 nM | < 10 nM | COC1CCC(Nc2nc([C@@H](C)O)cc3cnc(Nc4ccc(OCCN(C)C)cn4)nc23)CC1 (stereo partly shown) [Compound 628] |
|  | 10 to 100 nM | < 10 nM |  |  | CC(C)Nc1nc(C(F)F)cc2cnc(Nc3ccc(N4CCNCC4)nn3)nc12 [Compound 73] |
|  | ≥ 100 nM | 10 to 100 nM |  |  | Cc1nnc(NCc2ccc(Nc3ncc4cc(C(F)F)nc(NC(C)C)c4n3)nc2)[nH]1 [Compound 158] |
|  |  |  | ≥ 100 nM | < 10 nM | CC(C)Nc1nc([C@@H](C)O)cc2cnc(Nc3ccc(N4CCN(CC(=O)N5CCOCC5)CC4)nn3)nc12 [Compound 967] |
|  |  |  | ≥ 100 nM | < 10 nM | CCCCNc1nc([C@@H](C)OC)cc2cnc(Nc3ccc(CN4CCNCC4)cn3)nc12 [Compound 854] |

From US10124004B2, “Pyrido[3,4-d]pyrimidine derivative and pharmaceutically acceptable salt thereof” (Teijin Pharma Limited, priority 2015, dated 2018)
